Structures can show the parent of a compound that is named as a salt.
How the values were obtained:
[1] = at 20° C.; cited from earlier work
[2] = mouse, in vivo, 4 mg/kg, 5 days
Experimental: The brain and plasma levels of (TDF) after the administration of the composition to mice at the dose of 4 mg/kg by the oral (n=6) or the nasal route (n=6) over 5 days have been measured and are shown in the Table below:

For `CC(C)OC(=O)[C@H](C)N[P@](=O)(CO[C@H](C)Cn1cnc2c(N)ncnc21)Oc1ccccc1` [Tenofovir alafenamide], which water solubility [1] is on record?
Its water solubility is “about 4.86 mg/ml”.

With `CC(C)OC(=O)OCOP(=O)(CO[C@H](C)Cn1cnc2c(N)ncnc21)OCOC(=O)OC(C)C` [Tenofovir disoproxil fumarate] as the compound, how does the “brain concentration, nasal versus oral administration” value [2] read?
The value was “more than 4 fold”.

From US20230255986A1, “PHARMACEUTICAL COMPOSITIONS FOR TREATING INFECTIONS BY A NEUROTROPIC VIRUS” (priority 2020, published 2023)
